Experimental data from patent US11912794B2, “Modulation of structured polypeptide specificity” (BicycleRD Limited, priority 2011, dated 2024).
Numbered stars: 1 amine (or outer) side, 2 acyl side, 3 side chain; on linkers, the order of the positions; unused ones are H or OH. Bridge positions count the residues as written; N and C are the ends. Square brackets hold non-standard residues; d marks the D form. Peptide text beside a SMILES is read from it. Phe(4-guanidino) = N=C(N)Nc1ccc(C[C@H](N)C(=O)O)cc1; Pro(trans-4-Ph) = O=C(O)[C@@H]1C[C@@H](c2ccccc2)CN1; Pro(4R-Bn) = O=C(O)[C@@H]1C[C@@H](Cc2ccccc2)CN1; TBMB = c1c(C[*:1])cc(C[*:3])cc1C[*:2]; Hyp = O=C(O)[C@@H]1C[C@@H](O)CN1; Pen = CC(C)(S)[C@H](N)C(=O)O; Aze = O=C(O)[C@@H]1CCN1; Abu = CC[C@H](N)C(=O)O; Aib = CC(C)(N)C(=O)O

Assays:
[1] = biological target: T1, human plasma Kallikrein (Homo sapiens, UniProt P03952); assay: Functional enzyme inhibition assay, fluorogenic substrate Z-PheArg-AMC; type: biochemical; details: for Ki: Ki (nM) (human kallikrein), Ac-06-34-18(TMB)-NH2 series
T1 construct: purchased Stratech, UK
T1 sequence (P03952 20-638): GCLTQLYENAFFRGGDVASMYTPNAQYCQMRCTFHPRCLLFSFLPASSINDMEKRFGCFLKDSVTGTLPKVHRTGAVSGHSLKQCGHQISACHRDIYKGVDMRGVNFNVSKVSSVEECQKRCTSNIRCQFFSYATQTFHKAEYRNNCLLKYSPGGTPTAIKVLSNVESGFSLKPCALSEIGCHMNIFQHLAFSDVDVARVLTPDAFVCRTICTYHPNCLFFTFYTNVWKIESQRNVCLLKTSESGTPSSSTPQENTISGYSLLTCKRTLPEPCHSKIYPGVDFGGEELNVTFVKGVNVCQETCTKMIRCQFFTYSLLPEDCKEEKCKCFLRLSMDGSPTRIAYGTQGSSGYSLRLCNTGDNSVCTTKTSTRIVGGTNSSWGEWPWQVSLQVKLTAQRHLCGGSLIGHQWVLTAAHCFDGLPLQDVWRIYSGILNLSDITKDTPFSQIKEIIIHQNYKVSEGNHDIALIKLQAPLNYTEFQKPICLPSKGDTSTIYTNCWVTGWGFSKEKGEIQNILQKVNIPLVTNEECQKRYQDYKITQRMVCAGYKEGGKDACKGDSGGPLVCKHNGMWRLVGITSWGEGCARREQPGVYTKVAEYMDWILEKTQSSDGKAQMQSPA
Procedure: Peptides were dissolved as the TFA-salts in their powder form, and stock solutions were usually prepared in water. All solutions were centrifuged and filtered ([…] syringe filters) prior absorption measurement at 280 nm. […] For peptides containing non-natural amino acids with suspected chromophoric properties (i.e. NorHar, 4PhenylPro, 3PaI, 4PaI, Tic, 4GuanPhe, 4,4-BPAI, 3,3-DPA, 1NAI, 2NAI, 4BenzylPro, Ind) concentrations were determined by weighing the powder and dissolving the peptide in a defined quantity of water.

[2] = Plasma stability profiling method 1 (35% plasma, MALDI-TOF, qualitative); type: in vitro ADME, rat; details: for Observable in rat plasma, for days: 35% rat plasma, 37 deg C, method 1, comparative estimate; for rat plasma stability: method 1
Procedure: Three methods were employed to assess the stability of bicycles (peptides conjugated to molecular scaffolds) in plasma.
A rapid plasma stability profiling assay was developed that employed mass spectrometric detection (MALDI-TOF, Voyager DE, Applied Biosystems) of the parent mass, until the time when the parent peptide mass was no longer observable. Specifically, 200 uM of peptide was incubated in the presence of 35% rat or human plasma (Sera labs, using citrate as anticoagulant) at 37 deg C., which was supplemented with 1×PBS (derived from a 10×PBS Stock, Sigma). At various time points (i.e. t=0, 3, 24 hrs, henceafter daily up to 10 days), 2 uL of sample was added to 18 uL of 30 mM ammonium bicarbonate in a 1:1 mixture of acetonitrile:H2O. Samples were frozen at −80 deg C. until the time of analysis. For mass spectrometric analysis that determines the approximate detection window of the peptide, the acetonitrile:H2O-diluted sample of a given time point was spotted directly (0.7 uL) onto the MALDI plate. Matrix (alpha-cyanocinnamic acid, Sigma, prepared as a saturated solution in 1:1 acetonitrile:water containing 0.1% trifluoroacetic acid) was layered over the sample (1 uL). At a similar laser intensity setting on the MALDI TOF, the time could then be determined until parent peptide was no longer detectable. It should be noted that this is a qualitative assay serves to detect relative changes in plasma stability.

Structure (SMILES) | Ki [1] | Observable in rat plasma, for days [2] | other results
CC(=O)N[C@H]1CSCc2cc3cc(c2)CSC[C@H](NC(=O)[C@H](CCCNC(=N)N)NC(=O)[C@H](C)NC(=O)[C@@H]2C[C@@H](Cc4ccccc4)CN2C(=O)[C@H](Cc2c[nH]c4ccccc24)NC(=O)[C@H](CO)NC1=O)C(=O)N[C@@H](CC(C)C)C(=O)N[C@@H](Cc1c[nH]cn1)C(=O)N[C@@H](CCC(N)=O)C(=O)N[C@@H](CC(=O)O)C(=O)N[C@@H](CC(C)C)C(=O)N[C@H](C(N)=O)CSC3 [Ac-(06-34-18) 4Benzyl Pro3] (Ac-CSW[Pro(4R-Bn)]ARCLHQDLC-NH2; linker 1-7-13 via TBMB) | 191 nM | 2 days | 
CC(=O)N[C@H]1CSCc2cc3cc(c2)CSC[C@H](NC(=O)[C@H](CCCNC(=N)N)NC(=O)[C@H](C)NC(=O)[C@@H]2C[C@@H](c4ccccc4)CN2C(=O)[C@H](Cc2c[nH]c4ccccc24)NC(=O)[C@H](CO)NC1=O)C(=O)N[C@@H](CC(C)C)C(=O)N[C@@H](Cc1c[nH]cn1)C(=O)N[C@@H](CCC(N)=O)C(=O)N[C@@H](CC(=O)O)C(=O)N[C@@H](CC(C)C)C(=O)N[C@H](C(N)=O)CSC3 [Ac-(06-34-18) 4Phenyl Pro3] (Ac-CSW[Pro(trans-4-Ph)]ARCLHQDLC-NH2; linker 1-7-13 via TBMB) | 0.58 nM | 2 days | 
CC[C@@H]1NC(=O)[C@@H]2CCCN2C(=O)[C@H](Cc2c[nH]c3ccccc23)NC(=O)[C@H](CO)NC(=O)[C@@H](NC(C)=O)CSCc2cc3cc(c2)CSC[C@H](NC(=O)[C@H](CCCNC(=N)N)NC1=O)C(=O)N[C@@H](CC(C)C)C(=O)N[C@@H](Cc1c[nH]cn1)C(=O)N[C@@H](CCC(N)=O)C(=O)N[C@@H](CC(=O)O)C(=O)N[C@@H](CC(C)C)C(=O)N[C@H](C(N)=O)CSC3 [Ac-(06-34-18) Aba4] (Ac-CSWP[Abu]RCLHQDLC-NH2; linker 1-7-13 via TBMB) | 0.07 nM | 2 days | 
CC(=O)N[C@H]1CSCc2cc3cc(c2)CSC[C@H](NC(=O)[C@H](CCCNC(=N)N)NC(=O)[C@H](C)NC(=O)C(C)(C)NC(=O)[C@H](Cc2c[nH]c4ccccc24)NC(=O)[C@H](CO)NC1=O)C(=O)N[C@@H](CC(C)C)C(=O)N[C@@H](Cc1c[nH]cn1)C(=O)N[C@@H](CCC(N)=O)C(=O)N[C@@H](CC(=O)O)C(=O)N[C@@H](CC(C)C)C(=O)N[C@H](C(N)=O)CSC3 [Ac-(06-34-18) Aib3] (Ac-CSW[Aib]ARCLHQDLC-NH2; linker 1-7-13 via TBMB) | 1.2 nM | 2 days | 
CC(=O)N[C@H]1CSCc2cc3cc(c2)CSC[C@H](NC(=O)[C@H](CCCNC(=N)N)NC(=O)C(C)(C)NC(=O)[C@@H]2CCCN2C(=O)[C@H](Cc2c[nH]c4ccccc24)NC(=O)[C@H](CO)NC1=O)C(=O)N[C@@H](CC(C)C)C(=O)N[C@@H](Cc1c[nH]cn1)C(=O)N[C@@H](CCC(N)=O)C(=O)N[C@@H](CC(=O)O)C(=O)N[C@@H](CC(C)C)C(=O)N[C@H](C(N)=O)CSC3 [Ac-(06-34-18) Aib4] (Ac-CSWP[Aib]RCLHQDLC-NH2; linker 1-7-13 via TBMB) | 289 nM | 7 days | 
CC(=O)N[C@H]1CSCc2cc3cc(c2)CSC[C@H](NC(=O)[C@H](Cc2ccc(NC(=N)N)cc2)NC(=O)[C@H](C)NC(=O)[C@@H]2CCN2C(=O)[C@H](Cc2c[nH]c4ccccc24)NC(=O)[C@H](CO)NC1=O)C(=O)N[C@@H](CC(C)C)C(=O)N[C@@H](Cc1c[nH]cn1)C(=O)N[C@@H](CCC(N)=O)C(=O)N[C@@H](CC(=O)O)C(=O)N[C@@H](CC(C)C)C(=O)N[C@H](C(N)=O)CSC3 [Ac-(06-34-18) Aze3 4GuanPhe5] (Ac-CSW[Aze]A[Phe(4-guanidino)]CLHQDLC-NH2; linker 1-7-13 via TBMB) | 0.17 nM | >10 days | 
CC(=O)N[C@H]1CSCc2cc3cc(c2)CSC[C@H](NC(=O)[C@H](CCCNC(=N)N)NC(=O)[C@H](C)NC(=O)[C@@H]2CCN2C(=O)[C@H](Cc2c[nH]c4ccccc24)NC(=O)[C@H](CO)NC1=O)C(=O)N[C@@H](CC(C)C)C(=O)N[C@@H](Cc1c[nH]cn1)C(=O)N[C@@H](CCC(N)=O)C(=O)N[C@@H](CC(=O)O)C(=O)N[C@@H](CC(C)C)C(=O)N[C@H](C(N)=O)CSC3 [Ac-(06-34-18) Aze3] (Ac-CSW[Aze]ARCLHQDLC-NH2; linker 1-7-13 via TBMB) |  | 2 days | affinity surpassing that of wildtype by a factor ([1]; vs Ac-06-34-18(TMB)-NH2): 3
CC(=O)N[C@H]1CSCc2cc3cc(c2)CSC(C)(C)[C@H](NC(=O)[C@H](CCCNC(=N)N)NC(=O)[C@H](C)NC(=O)[C@@H]2CCCN2C(=O)[C@H](Cc2c[nH]c4ccccc24)NC(=O)[C@H](CO)NC1=O)C(=O)N[C@@H](CC(C)C)C(=O)N[C@@H](Cc1c[nH]cn1)C(=O)N[C@@H](CCC(N)=O)C(=O)N[C@@H](CC(=O)O)C(=O)N[C@@H](CC(C)C)C(=O)N[C@H](C(N)=O)CSC3 [Ac-(06-34-18) Cys2ToPen2] (Ac-CSWPAR[Pen]LHQDLC-NH2; linker 1-7-13 via TBMB) |  | 5 days | potency against human plasma Kallikrein compared to parent [1]: potency dropped significantly; rat plasma stability [2]: slightly enhanced
CC(=O)N[C@H]1CSCc2cc3cc(c2)CSC[C@H](NC(=O)[C@H](CCCNC(=N)N)NC(=O)[C@H](C)NC(=O)[C@@H]2CCCN2C(=O)[C@H](Cc2ccccc2)NC(=O)[C@H](CO)NC1=O)C(=O)N[C@@H](CC(C)C)C(=O)N[C@@H](Cc1c[nH]cn1)C(=O)N[C@@H](CCC(N)=O)C(=O)N[C@@H](CC(=O)O)C(=O)N[C@@H](CC(C)C)C(=O)N[C@H](C(N)=O)CSC3 [Ac-(06-34-18) FPAR] (Ac-CSFPARCLHQDLC-NH2; linker 1-7-13 via TBMB) |  | 2 days | loss in potency / reduction in affinity compared to wildtype ([1]; vs Ac-06-34-18(TMB)-NH2): 40 fold
CC(=O)N[C@H]1CSCc2cc3cc(c2)CSC[C@H](NC(=O)[C@H](CCCNC(=N)N)NC(=O)[C@H](C)NC(=O)[C@@H]2C[C@@H](O)CN2C(=O)[C@H](Cc2c[nH]c4ccccc24)NC(=O)[C@H](CO)NC1=O)C(=O)N[C@@H](CC(C)C)C(=O)N[C@@H](Cc1c[nH]cn1)C(=O)N[C@@H](CCC(N)=O)C(=O)N[C@@H](CC(=O)O)C(=O)N[C@@H](CC(C)C)C(=O)N[C@H](C(N)=O)CSC3 [Ac-(06-34-18) HyP3] (Ac-CSW[Hyp]ARCLHQDLC-NH2; linker 1-7-13 via TBMB) | 0.41 nM | 2 days | 
CC(=O)N[C@H]1CSCc2cc3cc(c2)CSC[C@H](NC(=O)[C@H](CCCNC(=N)N)N(C)C(=O)[C@H](C)NC(=O)[C@@H]2CCCN2C(=O)[C@H](Cc2c[nH]c4ccccc24)NC(=O)[C@H](CO)NC1=O)C(=O)N[C@@H](CC(C)C)C(=O)N[C@@H](Cc1c[nH]cn1)C(=O)N[C@@H](CCC(N)=O)C(=O)N[C@@H](CC(=O)O)C(=O)N[C@@H](CC(C)C)C(=O)N[C@H](C(N)=O)CSC3 [Ac-(06-34-18) NMeArg5] |  |  | loss in potency / reduction in affinity compared to wildtype ([1]; vs Ac-06-34-18(TMB)-NH2): 20 fold; rat plasma stability [2]: exceeds the assay time
